A value given as a limit tells only on which side of the number the result lay.

Assay [1] deals with THP-1 cells (TNFα secretion on human IgG-coated plate). Briefly: TNFα generation assay. It is filed as cell-based. The conditions noted are these: IFN-γ differentiated THP-1 cells, 7 hours, AlphaLISA, read-out: IC50 of TNFα generation inhibitory activity. The gist of the method:
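THP-1 cells were differentiated with 10 ng/ml IFN-γ for 2 days, then preincubated with compound for 30 min at room temperature. They were then plated at 5×10^4 cells/well on plates coated with human IgG (10 μg/ml). TNFα secreted over 7 h of culture was quantified by AlphaLISA.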

Assay [2] addresses T1, glutathione S-transferase (GST)-linked full-length human Syk protein (Homo sapiens, UniProt P43405).
T1 construct: glutathione S-transferase (GST)-linked full-length human Syk protein; purchased Carna Biosciences; host or cells: Baculovirus expression system
The experiment in a line: Syk enzyme assay. The assay is classed as biochemical. The conditions noted are these: 0.83 nM Syk, time-resolved fluorescence; read-out: IC50 of Syk-inhibitory activity. The gist of the method:
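Phosphotyrosine on a biotin-peptide substrate (0.5 μM) was read by time-resolved fluorescence at 615 and 665 nm with Eu-anti-pTyr antibody and APC-streptavidin after 1 h EDTA stop.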

For `CCCC[C@@H](Nc1nc(Nc2cncc(-n3cccn3)c2)c(C(N)=O)cc1F)[C@H](C)N` [Example 2-69, 2-((5-(1H-pyrazol-1-yl)pyridin-3-yl)amino)-6-(((2S,3R)-2-aminoheptan-3-yl)amino)-5-fluoronicotinamide], the IC50 in assay [1] lay in the range of 130 to 200 nM; in assay [2], 10 to 50 nM.
Regarding `C[C@H](N)[C@H](Nc1nc(Nc2ccc3cnn(C)c3c2)c(C(N)=O)cc1F)C1CCC1` [Example 2-10, 6-(((1R,2S)-2-amino-1-cyclobutylpropyl)amino)-5-fluoro-2-((1-methyl-1H-indazol-6-yl)amino)nicotinamide], the IC50 is below 65 nM in assay [1] and below 10 nM in assay [2].
For the molecule `COc1nn(C)c2ncc(Nc3nc(N[C@H](C4CC4)[C@H](C)N)c(F)cc3C(N)=O)cc12` [Example 2-253, 6-(((1R,2S)-2-amino-1-cyclopropylpropyl)amino)-5-fluoro-2-((3-methoxy-1-methyl-1H-pyrazolo[3,4-b]pyridin-5-yl)amino)nicotinamide], the IC50 in assay [1] was 65 to 130 nM; in assay [2], below 10 nM.
The corresponding values for `CC[C@@H](Nc1nc(Nc2ccc3c(c2)c(OC)nn3CCOC)c(C(N)=O)cc1F)[C@H](C)N` [Example 2-125, 6-(((2S,3R)-2-aminopentan-3-yl)amino)-5-fluoro-2-((3-methoxy-1-(2-methoxyethyl)-1H-indazol-5-yl)amino)nicotinamide] are 65 to 130 nM and below 10 nM.
In the case of `COC[C@@H](Nc1nc(Nc2cc(F)c3c(c2)c(OC)nn3C)c(C(N)=O)cc1F)[C@H](C)N` [Example 2-159, 6-(((2S,3S)-3-amino-1-methoxybutan-2-yl)amino)-5-fluoro-2-((7-fluoro-3-methoxy-1-methyl-1H-indazol-5-yl)amino)nicotinamide], the IC50 in assay [1] was 65 to 130 nM; in assay [2] it was below 10 nM.
For `Cc1ccc(Nc2nc(N[C@H](C3CC3)[C@H](C)N)c(F)cc2C(N)=O)cc1C` [Example 2-481, 6-(((1R,2S)-2-amino-1-cyclopropylpropyl)amino)-2-((3,4-dimethylphenyl)amino)-5-fluoronicotinamide], the IC50 was 65 to 130 nM in assay [1] and below 10 nM in assay [2].
The corresponding values for `CC[C@@H](Nc1nc(Nc2cc(F)c3c(c2)c(N(C)C)nn3C)c(C(N)=O)cc1F)[C@H](C)N` [Example 2-186, 6-(((2S,3R)-2-aminopentan-3-yl)amino)-2-((3-(dimethylamino)-7-fluoro-1-methyl-1H-indazol-5-yl)amino)-5-fluoronicotinamide] are 65 to 130 nM and below 10 nM.
`COCCOc1cc(Nc2nc(N[C@H](C3CCC3)[C@H](C)N)c(F)cc2C(N)=O)ccn1` [Example 2-7, 6-(((1R,2S)-2-amino-1-cyclobutylpropyl)amino)-5-fluoro-2-((2-(2-methoxyethoxy)pyridin-4-yl)amino)nicotinamide]: the IC50 in assay [1] was 65 to 130 nM; in assay [2], below 10 nM.
On to `CC[C@@H](Nc1nc(Nc2cccc(C)c2)c(C(N)=O)cc1F)[C@H](C)N` [Example 2-474, 6-(((2S,3R)-2-aminopentan-3-yl)amino)-5-fluoro-2-(m-tolylamino)nicotinamide], for which the values for the IC50 in assay [1] and in assay [2] were 130 to 200 nM and below 10 nM, respectively.
The corresponding values for `CC[C@H](N)[C@@H](C)Nc1nc(Nc2ccc3c(c2)c(OC)nn3CCOC)c(C(N)=O)cc1F` [Example 2-129, 6-(((2R,3S)-3-aminopentan-2-yl)amino)-5-fluoro-2-((3-methoxy-1-(2-methoxyethyl)-1H-indazol-5-yl)amino)nicotinamide] are 130 to 200 nM and 10 to 50 nM.
Consider `Cn1nc(N2CCCC2)c2cc(Nc3nc(N[C@@H]4CCCC[C@@H]4N)c(F)cc3C(N)=O)ccc21` [Example 2-428, 6-(((1R,2S)-2-aminocyclohexyl)amino)-5-fluoro-2-((1-methyl-3-(pyrrolidin-1-1)-1H-indazol-5-yl)amino)nicotinamide], for which the IC50 in assay [1] was in the range of 130 to 200 nM; in assay [2], 10 to 50 nM.
As to `CCOC[C@@H](Nc1nc(Nc2ccc3c(cnn3C)c2)c(C(N)=O)cc1F)[C@H](C)N` [Example 2-179, 6-(((2S,3S)-3-amino-1-ethoxybutan-2-yl)amino)-5-fluoro-2-((1-methyl-1H-indazol-5-yl)amino)nicotinamide], the IC50 fell in the range of 130 to 200 nM in assay [1] and 10 to 50 nM in assay [2].
The corresponding values for `CC[C@H](N)[C@@H](C)Nc1nc(Nc2ccc3cnn(C)c3c2)c(C(N)=O)cc1F` [Example 2-39, 6-(((2R,3S)-3-aminopentan-2-yl)amino)-5-fluoro-2-((1-methyl-1H-indazol-6-yl)amino)nicotinamide] are below 65 nM and below 10 nM.
Taken in the same sequence, the figures for `COc1cc(Nc2nc(N[C@H](C3CC3)[C@H](C)N)c(F)cc2C(N)=O)cc(OC)c1` [Example 2-47, 6-(((1R,2S)-2-amino-1-cyclopropylpropyl)amino)-2-((3,5-dimethoxyphenyl)amino)-5-fluoronicotinamide] were 65 to 130 nM and below 10 nM.
Consider `COCCn1nc(C)c2cc(Nc3nc(N[C@@H](CN)CC(C)C)c(F)cc3C(N)=O)ccc21` [Example 2-130], for which the IC50 in assay [1] is 65 to 130 nM; in assay [2] it was below 10 nM.
As for `COc1nn(CC(F)F)c2ccc(Nc3nc(N[C@H](CC(C)C)[C@H](C)N)c(F)cc3C(N)=O)cc12` [Example 2-54, 6-(((2S,3R)-2-amino-5-methylhexan-3-yl)amino)-2-((1-(2,2-difluoroethyl)-3-methoxy-1H-indazol-5-yl)amino)-5-fluoronicotinamide], the IC50 in assay [1] was 130 to 200 nM; in assay [2], below 10 nM.
Taken in the same sequence, the figures for `CC[C@H](N)[C@H](Nc1nc(Nc2ccc3c(cnn3CC)c2)c(C(N)=O)cc1F)C1CC1` [Example 2-362] were 65 to 130 nM and below 10 nM.
The corresponding values for `CCC[C@@H](Nc1nc(Nc2cc(F)c3c(c2)c(N(C)C)nn3C)c(C(N)=O)cc1F)[C@H](C)N` [Example 2-187, 6-(((2S,3R)-2-aminohexan-3-yl)amino)-2-((3-(dimethylamino)-7-fluoro-1-methyl-1H-indazol-5-yl)amino)-5-fluoronicotinamide] are 65 to 130 nM and below 10 nM.
Regarding `CCOC[C@@H](Nc1nc(Nc2ccc3c(cnn3CC)c2)c(C(N)=O)cc1F)[C@H](C)N` [Example 2-182, 6-(((2S,3S)-3-amino-1-ethoxybutan-2-yl)amino)-2-((1-ethyl-1H-indazol-5-yl)amino)-5-fluoronicotinamide], the values for the IC50 in assay [1] and in assay [2] were 65 to 130 nM and below 10 nM, respectively.
Turning to `COc1nn(C)c2c(F)cc(Nc3nc(N[C@@H]4CCCC[C@@H]4N)c(F)cc3C(N)=O)cc12` [Example 2-150, 6-(((1R,2S)-2-aminocyclohexyl)amino)-5-fluoro-2-((7-fluoro-3-methoxy-1-methyl-1H-indazol-5-yl)amino)nicotinamide], the IC50 is 130 to 200 nM in assay [1] and below 10 nM in assay [2].
Taken in the same sequence, the figures for `COCCn1nc(OC)c2cc(Nc3nc(N[C@H](C4CC4)[C@H](C)N)c(F)cc3C(N)=O)ccc21` [Example 2-539] were 130 to 200 nM and below 10 nM.
Taken in the same sequence, the figures for `COCCn1nc(C)c2cc(Nc3nc(N[C@@H]4CCOC[C@@H]4N)c(F)cc3C(N)=O)ccc21` [Example 2-327, 6-(((3R,4R)-3-aminotetrahydro-2H-pyran-4-yl)amino)-5-fluoro-2-((1-(2-methoxyethyl)-3-methyl-1H-indazol-5-yl)amino)nicotinamide] were 130 to 200 nM and below 10 nM.
Turning to `CC[C@@H](Nc1nc(Nc2cncc(-n3cc(Cl)cn3)c2)c(C(N)=O)cc1F)[C@H](C)N` [Example 2-522, 6-(((2S,3R)-2-aminopentan-3-yl)amino)-2-((5-(4-chloro-1H-pyrazol-1-yl)pyridin-3-yl)amino)-5-fluoronicotinamide], the values for the IC50 in assay [1] and in assay [2] were 130 to 200 nM and 10 to 50 nM, respectively.
For `COc1cc(Nc2nc(N[C@H](C3CCC3)[C@H](C)N)c(F)cc2C(N)=O)cc(OC)n1` [Example 2-6, 6-(((1R,2S)-2-amino-1-cyclobutylpropyl)amino)-2-((2,6-dimethoxypyridin-4-yl)amino)-5-fluoronicotinamide], the IC50 in assay [1] was 130 to 200 nM; in assay [2], below 10 nM.
As to `COC[C@@H](Nc1nc(Nc2ccc3c(c2)c(OC(F)F)nn3C)c(C(N)=O)cc1F)[C@H](C)N` [Example 2-173, 6-(((2S,3S)-3-amino-1-methoxybutan-2-yl)amino)-2-((3-(difluoromethoxy)-1-methyl-1H-indazol-5-yl)amino)-5-fluoronicotinamide], the values for the IC50 in assay [1] and in assay [2] were 65 to 130 nM and below 10 nM, respectively.
Consider `COc1cc(Nc2nc(N[C@H](C3CCC3)[C@H](C)N)c(F)cc2C(N)=O)ccn1` [Example 2-5, 6-(((1R,2S)-2-amino-1-cyclobutylpropyl)amino)-5-fluoro-2-((2-methoxypyridin-4-yl)amino)nicotinamide], for which the IC50 in assay [1] is 65 to 130 nM; in assay [2], below 10 nM.
For the molecule `C[C@H](N)[C@H](Nc1nc(Nc2cccc3c2cnn3CC(F)F)c(C(N)=O)cc1F)C1CC1` [Example 2-75, 6-(((1R,2S)-2-amino-1-cyclopropylpropyl)amino)-2-((1-(2,2-difluoroethyl)-1H-indazol-4-yl)amino)-5-fluoronicotinamide], the values for the IC50 in assay [1] and in assay [2] were 130 to 200 nM and below 10 nM, respectively.
With `NC(=O)c1cc(F)c(N[C@@H]2CCCC[C@@H]2N)nc1Nc1cccc(Cl)c1` [Example 2-439, 6-(((1R,2S)-2-aminocyclohexyl)amino)-2-((3-chlorophenyl)amino)-5-fluoronicotinamide], the values for the IC50 in assay [1] and in assay [2] were 65 to 130 nM and below 10 nM, respectively.

For the origin of these results see patent US9051310B2, “Nicotinamide derivative or salt thereof” (FUJIFILM Corporation, priority 2011, dated 2015).
